Measured values as given in US9636021B2, “Flavonoid compounds of low toxicity for biological imaging applications” (The University of Akron, priority 2014, dated 2017).

What was measured:
[1] = test system: BSA, human serum albumin (HSA); assay: wash-free staining of proteins in SDS-PAGE gel; assay type: binding; details: BSA, HSA vs fibrinogen, lysozyme, trypsin, 10 μg
Procedure: (§1) FIG. 20 provides fluorescence images of several proteins in electrophoresis gel stained by compound 4 before and after washing 1. BSA at 0.1 μg; 2. BSA at 1 μg; 3. BSA at 10 μg; 4. BSA at 100 μg; 5. HSA at 10 μg; 6. Fibrinogen at 10 μg; 7. Lysozyme at 10 μg; 8. Trypsin at 10 μg;
(§2) Various proteins were run on the 1-D SDS-PAGE minigels with running buffer (25 mM Tris, 192 mM glycine, 0.1% SDS pH 8.3) under 100 volts for 1.5 hrs. The minigels were then placed in the dye solution (10 mM of compound 4, 0.3% SDS, and AcOH/DMSO/H2O=5:10:85). […] Therefore, the discovered protein-staining reagent had the following advantages: (1) low interference of SDS to fluorescence, thereby eliminating the pretreatment; (2) very weak fluorescent in water and gels to eliminate the need for the washing process; (3) strong interaction with the proteins (serum albumin) to reduce the staining time; (4) a high signal-to-noise (S/N) ratio for the high contrast ratio of images.

[2] = molecular target: BSA, human serum albumin (HSA) (Bos taurus, UniProt P02769); assay: wash-free staining of proteins in SDS-PAGE gel; assay type: binding; details: 2 hours staining, 10 mM dye, 0.3% SDS, no washing
Procedure: as §1, §2

[3] = molecular target: bovine serum albumin (BSA) (Bos taurus, UniProt P02769); assay: fluorescence turn-on with BSA in PBS buffer; assay type: binding; details: for detection limit (10% increase in fluorescence emission) / visual recognizable detection limit (S/N above 3:1): BSA; for F(+)/F(−) fluorescence intensity with BSA / without BSA: BSA 1.0 mg/ml; for F(+)/F(−) fluorescence intensity with BSA / without BSA / λabs(+) / λem(+) / λabs(−) / λem(−): 10 μM dye; for λabs(+) / λem(+): with BSA 1.0 mg/ml; for λabs(−) / λem(−): without BSA
Procedure: In the aqueous buffer (0.5% DMSO, 10 mM of PBS, pH=7.4), the BSA binding-induced fluorescence turn-on was so large that it could be easily seen by naked eye. […] The intramolecular charge transfer along the D-A conjugated backbone plays a very important role in the environment-sensitivity of the flavone. All the evidence consistently pointed to the flavone dye entering the hydrophobic site of BSA.
Generally, the detection limit can be defined as the analyte concentration at which a 10% increase in fluorescence emission can be measured.
Therefore, the detection limits of compounds 1-6 were 2.6, 0.14, 0.59, 0.09, 14, and 3.4 μg/mL, respectively. For Off/On type fluorescent sensor, the Signal-to-Noise (S/N) ratio above 3:1 is considered reliable for visual evaluation. The visual recognizable detection limits of compounds 1-6 were calculated as 78, 4.2, 17.7, 2.7, 420, and 102 μg/mL, respectively. The reference range for serum albumin concentration in human blood plasma is approximately 35-50 mg/mL. Even in fish, the concentration of serum albumins can reach 0.5-5 mg/mL. The detection limits of the compounds were much lower than serum albumin concentration, indicating the capability for actual blood sample testing.

[4] = test system: serum albumin in monkey serum; assay: fluorescence response to monkey serum; assay type: binding; details: 10 μM in 1 mL PBS
Procedure: FIG. 18 provides a chart of fluorescence spectra changes and of compound 4 (10 μM, in 1 mL of PBS buffer solution) upon addition of different volume of monkey serum;
FIG. 19 provides a chart of fluorescent intensities (λ=505 nm) of compound 4 (10 μM, in 1 mL of PBS buffer solution) upon addition of different volume of monkey serum;
Serum albumin is known as the most abundant protein in blood serum. The probe's fluorescence response to serum albumin in real blood samples would be considered as an ideal sensing tool. In this example, 10 μM of compound 4 was dissolved in 1 mL of PBS buffer as a test solution. […] The detection limit (S/N>3) for monkey serum was calculated as 0.03 μL.

[5] = absorbance and fluorescence spectra in DMSO; assay type: physicochemical
Description: The absorbance and fluorescence spectra of compounds 1-6 in dimethyl sulfoxide (DMSO) were investigated and the results are in Table 1.

[6] = fluorescence quenching by water; assay type: physicochemical
Description: Upon excitation via photon irradiation, the dipole moment increased dramatically because of the charge transfer from D-A structure in compound 1. An increase in the solvent polarity could relax the excited molecules more efficiently, thus decreasing the energy of the excited state of fluorophore and resulting in a red-shifted emission. […] The fluorescence of compound 1 was nearly 100% quenched by water due to intermolecular electron or proton transfer. Non-fluorescence in water raises the possibility of eliminating the washing process in the protein detection procedure, since the free dye molecules gives negligible background signal in water.

Sequence of bovine serum albumin (BSA) (P02769 25-607): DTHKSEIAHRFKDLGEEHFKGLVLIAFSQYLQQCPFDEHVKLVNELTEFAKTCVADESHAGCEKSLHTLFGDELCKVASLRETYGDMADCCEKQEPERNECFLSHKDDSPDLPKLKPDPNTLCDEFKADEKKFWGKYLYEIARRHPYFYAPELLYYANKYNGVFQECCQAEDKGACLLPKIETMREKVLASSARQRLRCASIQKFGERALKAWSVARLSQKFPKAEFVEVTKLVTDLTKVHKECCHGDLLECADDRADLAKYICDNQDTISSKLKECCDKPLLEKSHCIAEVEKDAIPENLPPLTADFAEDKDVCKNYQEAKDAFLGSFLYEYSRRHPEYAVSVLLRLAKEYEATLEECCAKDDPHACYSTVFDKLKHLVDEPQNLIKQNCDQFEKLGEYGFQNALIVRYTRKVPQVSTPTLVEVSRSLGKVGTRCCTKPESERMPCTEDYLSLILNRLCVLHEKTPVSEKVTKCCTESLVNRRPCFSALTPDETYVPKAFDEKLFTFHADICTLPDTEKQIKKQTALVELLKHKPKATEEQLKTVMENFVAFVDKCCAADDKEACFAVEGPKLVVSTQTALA
Sequence of BSA, human serum albumin (HSA) (Bos taurus, UniProt P02769) (P02769 25-607): as above

amount of BSA clearly observed in gel under a UV lamp [2]	detection limit (10% increase in fluorescence emission) [3]	visual recognizable detection limit (S/N above 3:1) [3]	F(+)/F(−) fluorescence intensity with BSA / without BSA ([3]; 10 mM PBS, 0.5% DMSO, pH 7.4)	fluorescence in the absence of BSA ([3]; aqueous buffer, 0.5% DMSO, 10 mM PBS, pH 7.4)	λabs(+) ([3]; 10 mM PBS, 0.5% DMSO, pH 7.4)	λem(+) ([3]; 10 mM PBS, 0.5% DMSO, pH 7.4)	λabs(−) ([3]; 10 mM PBS, 0.5% DMSO, pH 7.4)	λem(−) ([3]; 10 mM PBS, 0.5% DMSO, pH 7.4)	Φ [5]	λabs [5]	λem [5]	fluorescence quenched by water [6]	Structure (SMILES)	selectivity of protein staining in gel [1]	detection limit (S/N>3) for monkey serum [4]	fluorescence intensity enhancement at 505 nm ([4]; 25 μL of serum sample)
~1 µg	0.09 µg/mL	2.7 µg/mL	1100	almost no fluorescence	398 nm	484 nm	398 nm	490 nm	37.6%	390 nm	504 nm	–	COc1c(-c2ccc(N(C)C)cc2)oc2ccc(C)cc2c1=O [compound 4, 2-(4-(dimethylamino)phenyl)-3-methoxy-6-methyl-4H-chromen-4-one]	serum albumin proteins were selectively stained	0.03 µL	135 fold
–	2.6 µg/mL	78 µg/mL	38	–	416 nm	556 nm	403 nm	560 nm	10.0%	403 nm	–	~100%	CN(C)c1ccc(-c2oc3ccccc3c(=O)c2O)cc1 [compound 1, 2-(4-(dimethylamino)phenyl)-3-hydroxy-4H-chromen-4-one]	–	–	–
